For one data set, the system named is mice. The experiment in a line: Toxicity of bis-compounds after single systemic dose. Type of data set: in vivo. As to conditions: 16% cremaphor.
Experiment in data set [1]: as above
Type of data set: in vivo. As to conditions: mouse, in vivo, 16% cremaphor, single dose.

Data set [2] is described as follows: Cell viability (MTS) after treatment with bis-compound. The class given is cell-based. As to conditions: human, pha-activated pbmc, 5 μg/ml. How it is done: Human peripheral blood monocytes (PBMC) were obtained from commercial sources as a leukophoresis from a healthy volunteer and were purified by centrifugation on a Ficoll-Hypaque (Pharmacia) gradient (1700 rpm for 20 min). The "buffy" coat containing the PBMC was diluted with serum-free culture medium (SF-RPMI) to a volume of 50 ml and collected by centrifugation at 1500 rpm for 5 min. Cells were resuspended in cell culture medium containing 10% fetal bovine serum (RPMI-10) and phytohemaglutinin (PHA - 10 μg/ml) at a density of 5×10^6 cells/ml and were cultured for 3 days at 37° C. in a humidified CO2 incubator. The PHA-activated cells were collected by centrifugation, washed three times with an equal volume of SF-RPMI and resuspended in fresh RPMI-10 (1×10^6 cells /ml). Aliquots (100 μl) were dispensed into the wells of multiple 96-well plates to give a final cell number of 10^5 per well. Test compounds, dissolved in dimethyl sulfoxide (DMSO) at 1 mg/ml, were first diluted in culture medium to an intermediate concentration of 20 μg/ml and then were added (50 μwell) to a specific well of the plate for each compound. Stimulation medium (50 μl/well) containing 10% serum, IL-2 and IL-12 was added to final concentrations of 25 U/ml and 0.5 ng/ml, respectively. Control wells receive no IL-2 or IL-12 (negative control) or received both interleukins but no test compound (positive control). The plates were incubated for 48 hr at 37° C. in a CO2 incubator at which time aliquots (20 μl) were removed for analysis of IFN-γ concentration by ELISA. A quantitative ELISA was developed by coating 96-well plates with an mouse monoclonal antibody against human IFN-γ, 1 μg/ml in phosphate buffered saline (PBS) (Pestka Biological Laboratories), overnight at 4° C. Unbound antibody was washed off by washing three times with PBS. Non-specific antibody binding was blocked with a solution of 1% bovine serum albumin (BSA) and 1% goat serum in PBS (150 μl/well) which was incubated for 2 hr at 37° C. After washing the blocked plates four times with PBS, test samples and dilutions of the IFN-γ standard are added in a final volume of 100 μl/well. Following an overnight incubation at 4° C., the plates are washed four times with PBS, and a polyclonal rabbit antiserum against human IFN-γ (1/10000 dilution--Petska Biological Laboratories) is added. After an additional incubation for 1 hr at 37° C. and four washes with PBS, a polyclonal donkey anti-rabbit detecting antibody, conjugated to horseradish peroxidase (1/700 dilution--Petska Biological Laboratories) is added for 1 hr at 37° C. The plates are then washed four times with PBS and 100 μl of K-blue substrate E(ILISA Technologies, Neogen Corp.) is added until the color in the wells containing the standard curve is sufficiently developed, at which time 100 μl of "Red-stop" solution (ELISA Technologies) is added. The absorbance of the solution within each well of the plate is then read at 650 nm using an ELISA plate reader (Dynatech MR7000). The amount of IFN-γ is calculated by comparing the optical density of the test sample with a standard curve derived from the dilutions of the control IFN-y. […] MTS is a chemical chromophore that is metabolized in the mitochondria of viable cells to produce a color which increases in intensity in proportion to the numbers of viable cells. The absorbance of the cell culture can be compared to control cultures in order to determine the percent viability.

Data set [3] deals with IL-12 induction of IFN-γ in PHA-activated human PBMC. Nature of the data set: Screening assay for compounds which inhibit IL-12 induction of IFN-γ (ELISA). The class given is cell-based. As to conditions: 5 μg/ml, IL-2 25 U/ml + IL-12 0.5 ng/ml, 48 hr, single test, read-out: % INH of IFNγ. As for the experimental part:
Human peripheral blood monocytes (PBMC) were obtained from commercial sources as a leukophoresis from a healthy volunteer and were purified by centrifugation on a Ficoll-Hypaque (Pharmacia) gradient (1700 rpm for 20 min). The "buffy" coat containing the PBMC was diluted with serum-free culture medium (SF-RPMI) to a volume of 50 ml and collected by centrifugation at 1500 rpm for 5 min. Cells were resuspended in cell culture medium containing 10% fetal bovine serum (RPMI-10) and phytohemaglutinin (PHA - 10 μg/ml) at a density of 5×10^6 cells/ml and were cultured for 3 days at 37° C. in a humidified CO2 incubator. The PHA-activated cells were collected by centrifugation, washed three times with an equal volume of SF-RPMI and resuspended in fresh RPMI-10 (1×10^6 cells /ml). Aliquots (100 μl) were dispensed into the wells of multiple 96-well plates to give a final cell number of 10^5 per well. Test compounds, dissolved in dimethyl sulfoxide (DMSO) at 1 mg/ml, were first diluted in culture medium to an intermediate concentration of 20 μg/ml and then were added (50 μwell) to a specific well of the plate for each compound. Stimulation medium (50 μl/well) containing 10% serum, IL-2 and IL-12 was added to final concentrations of 25 U/ml and 0.5 ng/ml, respectively. Control wells receive no IL-2 or IL-12 (negative control) or received both interleukins but no test compound (positive control). The plates were incubated for 48 hr at 37° C. in a CO2 incubator at which time aliquots (20 μl) were removed for analysis of IFN-γ concentration by ELISA. A quantitative ELISA was developed by coating 96-well plates with an mouse monoclonal antibody against human IFN-γ, 1 μg/ml in phosphate buffered saline (PBS) (Pestka Biological Laboratories), overnight at 4° C. Unbound antibody was washed off by washing three times with PBS. Non-specific antibody binding was blocked with a solution of 1% bovine serum albumin (BSA) and 1% goat serum in PBS (150 μl/well) which was incubated for 2 hr at 37° C. After washing the blocked plates four times with PBS, test samples and dilutions of the IFN-γ standard are added in a final volume of 100 μl/well. Following an overnight incubation at 4° C., the plates are washed four times with PBS, and a polyclonal rabbit antiserum against human IFN-γ (1/10000 dilution--Petska Biological Laboratories) is added. After an additional incubation for 1 hr at 37° C. and four washes with PBS, a polyclonal donkey anti-rabbit detecting antibody, conjugated to horseradish peroxidase (1/700 dilution--Petska Biological Laboratories) is added for 1 hr at 37° C. The plates are then washed four times with PBS and 100 μl of K-blue substrate E(ILISA Technologies, Neogen Corp.) is added until the color in the wells containing the standard curve is sufficiently developed, at which time 100 μl of "Red-stop" solution (ELISA Technologies) is added. The absorbance of the solution within each well of the plate is then read at 650 nm using an ELISA plate reader (Dynatech MR7000). The amount of IFN-γ is calculated by comparing the optical density of the test sample with a standard curve derived from the dilutions of the control IFN-y. The amount of IFN-γ that is induced in the presence of both IL-2 and IL-12 generally ranges from 1200-2000 pg/ml while the amount produced in the absence of IL-12 is generally less than 50 pg/ml. Experimental data are shown in Table 2 which discloses a) the percent inhibition of IFNγ production, relative to a […], when the cells have been treated with a bis-compound at a final concentration of 5 μg/ml of the listed bis-compound (%INH or IFNγ) and b) the percent of cells which are viable after the treatment with 5 μg/ml of the various bis-compounds, determined by adding MTS to the media (% Viability). MTS is a chemical chromophore that is metabolized in the mitochondria of viable cells to produce a color which increases in intensity in proportion to the numbers of viable cells. […]

Setting [4] is: 100 mg/kg IV, 20% DMSO, 10 mg/ml.
Setting [5] is: 150 mg/kg IV, 20% DMSO, 10 mg/ml.
[6] abbreviates: iv, 20% DMSO, conc. sol. 10 mg/ml.
Where [7] appears, read: 100 mg/kg IV, 20% EGME, 10 mg/ml.
Where [8] appears, read: 150 mg/kg IV, 20% EGME, 10 mg/ml.
The mark [9] stands for this setting: 80 mg/kg IV, 20% DMSO, 10 mg/ml.

Entries after “also recorded” stand apart in the source; their conditions may differ. Some results are limits rather than exact numbers.

In the case of `Cc1cc(C(CCc2ccccc2)c2cc(C)cc(C(C)(C)C)c2O)c(O)c(C(C)(C)C)c1` [Compound 54016], the “Results (Dead/Alive)” value in the data set with mice (setting [4]) and in the data set with mice (setting [5]) was “Alive” in each case. Besides, the LD50 (usually the dose expected to kill half of the subjects tested) in data set [1] (setting [6]) was more than 150 mg/kg. Besides, the viability (commonly a read-out of living cells in per cent, often relative to untreated cells) in data set [2] came to 98%. Further, in data set [3], the inhibition at 5 µg/mL was determined as 26%.

`CCC(C)(c1ccc(O)c(C)c1)c1ccc(O)c(C)c1` [Compound 54003]: the figures for the “Results (Dead/Alive)” value with mice (setting [4]) and in the data set on mice (setting [5]) were “Alive” and “Dead”, respectively. The same compound had an LD50 in data set [1] (setting [6]) of 100 to 150 mg/kg. In data set [2], the viability came to 85%. The inhibition at 5 µg/mL in data set [3] amounted to 101%.

For `CCCC(c1cc(C)c(O)c(C)c1)c1cc(C)c(O)c(C)c1` [Compound 54044], the “Results (Dead/Alive)” value in the data set with mice (setting [4]) and in the data set with mice (setting [5]) was “Alive” throughout. The compound further came in with an LD50 in data set [1] (setting [6]) of more than 150 mg/kg. Moreover, the viability in data set [2] came out at 92%. Further, the inhibition at 5 µg/mL in data set [3] turned out to be 98%.

As to `CCCCC(c1cc(C)cc(C(C)(C)C)c1O)c1cc(C)cc(C(C)(C)C)c1O` [Compound 54020], the “Results (Dead/Alive)” value is reported as “Alive” in the data set with mice (setting [7]) and “Dead” in the data set with mice (setting [8]). Moreover, the LD50 in data set [1] (iv, 20% EGME, conc. sol. 10 mg/ml) lay within 100 to 150 mg/kg. Further, the viability in data set [2] stood at 95%. For the same compound, the inhibition at 5 µg/mL in data set [3] came to 69%.

For the compound `CCCCC(C)(c1cc(C)c(O)c(C)c1)c1cc(C)c(O)c(C)c1` [Compound 52782], the “Results (Dead/Alive)” value in the data set on mice (setting [9]) is reported as “Dead”. The compound also showed an LD50 in data set [1] (IV, 20% DMSO, conc. sol. 10 mg/ml) of less than 80 mg/kg. Also, the viability in data set [2] was found to be 116%. Further, the inhibition at 5 µg/mL in data set [3] was 102%.

For the compound `CCCCCC(c1cc(C)cc(C)c1O)c1cc(C)cc(C)c1O` [Compound 54019], the “Results (Dead/Alive)” value in the data set with mice (setting [4]) was “Alive”; in the data set on mice (setting [5]) it was “Dead”. In data set [1] (setting [6]), this compound returned an LD50 of 100 to 150 mg/kg. Also, in data set [2], the viability worked out at 101%. Also, in data set [3], the inhibition at 5 µg/mL stood at 77%.

Turning to `CCCC(C)(c1cc(C)c(O)c(C)c1)c1cc(C)c(O)c(C)c1` [Compound 54064], the figures for the “Results (Dead/Alive)” value in the data set with mice (setting [4]) and in the data set on mice (setting [5]) were “Alive” and “Dead”, respectively. Besides, in data set [1] (setting [6]), the LD50 fell in the range of 100 to 150 mg/kg. In addition, the viability in data set [2] stood at 112%. Besides, in data set [3], the inhibition at 5 µg/mL turned out to be 79%.

Consider `CCCCCCC(c1cc(C)cc(C)c1O)c1cc(C)cc(C)c1O` [Compound 54015], for which the “Results (Dead/Alive)” value in the data set with mice (setting [9]) is listed as “Alive”. The compound further registered an LD50 in data set [1] (setting [6]) of more than 80 mg/kg. The viability in data set [2] came out at 34%. For the same compound, the inhibition at 5 µg/mL in data set [3] was determined as 96%.

In the case of `Cc1cc(C)c(O)c(Cc2cc(C)cc(C)c2O)c1` [Compound 51850], the “Results (Dead/Alive)” value in the data set with mice (setting [4]) and in the data set on mice (setting [5]) was “Alive” in each case. Also, in data set [1] (setting [6]), the LD50 is more than 150 mg/kg. Besides, the viability in data set [2] came out at 97%. Also, in data set [3], the inhibition at 5 µg/mL is 77%.

For `Cc1cc(C)c(O)c(C(CCCCCCC(C)C)c2cc(C)cc(C)c2O)c1` [Compound 8302], the “Results (Dead/Alive)” value is on record as “Alive” in the data set with mice (setting [4]); “Alive” in the data set on mice (setting [5]); “Alive 1; also recorded: Dead 1” in the data set on mice (200 mg/kg IV, 20% DMSO, 15 mg/ml). For the same compound, the LD50 was more than 150 mg/kg in data set [1] (setting [6]) and 200 mg/kg in data set [1] (iv, 20% DMSO, conc. sol. 15 mg/ml). In data set [2], the viability was 100%. Also, in data set [3], the inhibition at 5 µg/mL was found to be 95%.

`CCCCCC(c1cc(C)cc(C(C)(C)C)c1O)c1cc(C)cc(C(C)(C)C)c1O` [Compound 54018]: the “Results (Dead/Alive)” value in the data set on mice (setting [7]) and in the data set with mice (setting [8]) was “Dead” throughout. The compound also came in with an LD50 in data set [1] (IV, 20% EGME, conc. sol. 10 mg/ml) of less than 100 mg/kg. For the same compound, in data set [2], the viability is 92%. For the same compound, the inhibition at 5 µg/mL in data set [3] turned out to be 55%.

Source of the values: patent US5880146A, “Inhibition of IL-12-induced IFN-γ synthesis by specific bis-phenol compounds as a method of immune modulation” (Fuji ImmunoPharmaceuticals Corporation, priority 1995, dated 1999).
